System: MV-4-11 cells
Assay: Gene expression microarray analysis (Affymetrix PrimeView) and GSEA
Assay type: cell-based, human
Design: RFU PODN (11730768_x_at) / Fold change /veh PODN (11730768_x_at) / RFU LINC00158 (11744669_a_at) / Fold change /veh LINC00158 (11744669_a_at) / RFU DUSP10 (11751237_a_at) / Fold change /veh DUSP10 (11751237_a_at) / RFU ID3 (11757404_x_at) / Fold change /veh ID3 (11757404_x_at) / RFU PLEKHG5 (11737974_s_at) / Fold change /veh PLEKHG5 (11737974_s_at) / RFU LRRC4B (11730491_at) / Fold change /veh LRRC4B (11730491_at) / RFU GIMAP4 (11747438_a_at) / Fold change /veh GIMAP4 (11747438_a_at) / RFU KRT8 (11758183_x_at) / Fold change /veh KRT8 (11758183_x_at) / RFU CNN1 (11734310_a_at) / Fold change /veh CNN1 (11734310_a_at) / RFU VPS37D (11726825_at) / Fold change /veh VPS37D (11726825_at) / RFU C10orf10 (11716522_x_at) / Fold change /veh C10orf10 (11716522_x_at) / RFU KIR2DL2 /// KIR2DL4 /// KIR2DL5A /// KIR2DL5B /// KIR2DS1 /// KIR2DS2 /// KIR2DS3 /// KIR2DS4 /// KIR3DL3 /// KIR3DL3 /// KIR3DS1 (11738374_at) / Fold change /veh KIR2DL2 /// KIR2DL4 /// KIR2DL5A /// KIR2DL5B /// KIR2DS1 /// KIR2DS2 /// KIR2DS3 /// KIR2DS4 /// KIR3DL3 /// KIR3DL3 /// KIR3DS1 (11738374_at) / RFU C1QL1 (11718748_at) / Fold change /veh C1QL1 (11718748_at) / RFU TMPRSS4 (11747572_a_at) / Fold change /veh TMPRSS4 (11747572_a_at) / RFU HAMP (11756126_x_at) / Fold change /veh HAMP (11756126_x_at) / RFU RNFT2 (11725882_a_at) / Fold change /veh RNFT2 (11725882_a_at) / RFU NR4A2 (11747474_a_at) / Fold change /veh NR4A2 (11747474_a_at) / RFU ABCC12 (11746883_a_at) / Fold change /veh ABCC12 (11746883_a_at) / RFU TMEM136 (11760407_x_at) / Fold change /veh TMEM136 (11760407_x_at) / RFU CLDN22 /// WWC2 (11732394_at) / Fold change /veh CLDN22 /// WWC2 (11732394_at) / RFU HLA-DPB1 (11760878_x_at) / Fold change /veh HLA-DPB1 (11760878_x_at) / RFU SPINT1 (11716480_a_at) / Fold change /veh SPINT1 (11716480_a_at) / RFU GAP43 (11754022_s_at) / Fold change /veh GAP43 (11754022_s_at) / RFU A4GNT (11735810_at) / Fold change /veh A4GNT (11735810_at) / RFU PRB3 (11715151_x_at) / Fold change /veh PRB3 (11715151_x_at) / RFU TUBB4B (11761932_at) / Fold change /veh TUBB4B (11761932_at) / RFU CAPN14 (11732068_a_at) / Fold change /veh CAPN14 (11732068_a_at) / RFU TMCC2 (11721928_a_at) / Fold change /veh TMCC2 (11721928_a_at) / RFU IRGQ (11745062_a_at) / Fold change /veh IRGQ (11745062_a_at) / RFU FAM174B (11720279_a_at) / Fold change /veh FAM174B (11720279_a_at) / RFU TMPRSS4 (11748680_a_at) / Fold change /veh TMPRSS4 (11748680_a_at) / RFU FAM212B (11763350_a_at) / Fold change /veh FAM212B (11763350_a_at) / RFU PLEKHG5 (11743358_a_at) / Fold change /veh PLEKHG5 (11743358_a_at) / RFU ZSCAN30 (11745921_a_at) / Fold change /veh ZSCAN30 (11745921_a_at) / RFU CMKLR1 (11741424_a_at) / Fold change /veh CMKLR1 (11741424_a_at) / RFU LOC101060620 /// MAPK8IP1 (11723275_at) / Fold change /veh LOC101060620 /// MAPK8IP1 (11723275_at) / RFU SPTSSB (11747773_x_at) / Fold change /veh SPTSSB (11747773_x_at) / RFU PRSS12 (11739890_at) / Fold change /veh PRSS12 (11739890_at) / RFU BIN1 (11741810_x_at) / Fold change /veh BIN1 (11741810_x_at) / RFU WNT11 (11732464_a_at) / Fold change /veh WNT11 (11732464_a_at) / RFU C10orf10 (11716521_a_at) / Fold change /veh C10orf10 (11716521_a_at) / RFU C5orf56 (11738089_at) / Fold change /veh C5orf56 (11738089_at) / RFU CYB561 (11721691_x_at) / Fold change /veh CYB561 (11721691_x_at) / RFU ANKRD19P (11752326_a_at) / Fold change /veh ANKRD19P (11752326_a_at) / RFU OR2T12 /// OR2T33 /// OR2T8 (11738714_s_at) / Fold change /veh OR2T12 /// OR2T33 /// OR2T8 (11738714_s_at) / RFU VCAN (11748164_a_at) / Fold change /veh VCAN (11748164_a_at) / RFU JSRP1 (11732532_at) / Fold change /veh JSRP1 (11732532_at) / RFU KRTAP10-11 (11738290_x_at) / Fold change /veh KRTAP10-11 (11738290_x_at) / RFU MYO3A (11730013_a_at) / Fold change /veh MYO3A (11730013_a_at) / RFU EBF3 (11725865_a_at) / Fold change /veh EBF3 (11725865_a_at) / RFU CAMK2N1 (11719241_x_at) / Fold change /veh CAMK2N1 (11719241_x_at) / RFU C5orf56 (11738088_a_at) / Fold change /veh C5orf56 (11738088_a_at) / RFU OLFML3 (11715873_a_at) / Fold change /veh OLFML3 (11715873_a_at) / RFU LOC100653217 /// NTM (11731650_a_at) / Fold change /veh LOC100653217 /// NTM (11731650_a_at) / RFU MAPK11 (11762145_a_at) / Fold change /veh MAPK11 (11762145_a_at) / RFU FIZ1 (11724087_x_at) / Fold change /veh FIZ1 (11724087_x_at) / RFU OASL (11726364_x_at) / Fold change /veh OASL (11726364_x_at) / RFU SOX15 (11748057_x_at) / Fold change /veh SOX15 (11748057_x_at) / RFU CD79A (11719716_a_at) / Fold change /veh CD79A (11719716_a_at) / RFU HIST1H1D (11736915_at) / Fold change /veh HIST1H1D (11736915_at) / RFU CASKIN2 (11723855_a_at) / Fold change /veh CASKIN2 (11723855_a_at) / RFU LOC730098 (11760151_x_at) / Fold change /veh LOC730098 (11760151_x_at) / RFU OR4N2 (11742367_at) / Fold change /veh OR4N2 (11742367_at) / RFU PRRT2 (11749266_a_at) / Fold change /veh PRRT2 (11749266_a_at) / RFU SNX32 (11753110_a_at) / Fold change /veh SNX32 (11753110_a_at) / RFU CDHR5 (11726645_a_at) / Fold change /veh CDHR5 (11726645_a_at) / RFU RCAN1 (11760418_a_at) / Fold change /veh RCAN1 (11760418_a_at) / RFU FAM167A (11723789_a_at) / Fold change /veh FAM167A (11723789_a_at) / RFU FAM26E (11764081_at) / Fold change /veh FAM26E (11764081_at) / RFU ISYNA1 (11749810_s_at) / Fold change /veh ISYNA1 (11749810_s_at) / RFU ACY1 (11761880_at) / Fold change /veh ACY1 (11761880_at) / RFU 11764098_at / Fold change /veh 11764098_at / RFU SAMD14 (11745864_x_at) / Fold change /veh SAMD14 (11745864_x_at) / RFU NPB (11741838_a_at) / Fold change /veh NPB (11741838_a_at) / RFU TMPRSS6 (11731388_a_at) / Fold change /veh TMPRSS6 (11731388_a_at) / RFU KRTAP10-2 (11738614_at) / Fold change /veh KRTAP10-2 (11738614_at) / RFU ARHGAP8 /// PRR5-ARHGAP8 (11727945_x_at) / Fold change /veh ARHGAP8 /// PRR5-ARHGAP8 (11727945_x_at) / RFU KRTAP5-7 /// NADSYN1 (11734609_at) / Fold change /veh KRTAP5-7 /// NADSYN1 (11734609_at) / RFU RASL12 (11751679_a_at) / Fold change /veh RASL12 (11751679_a_at) / RFU CDKN2B (11736163_a_at) / Fold change /veh CDKN2B (11736163_a_at) / RFU PRF1 (11729649_at) / Fold change /veh PRF1 (11729649_at) / RFU, ZNF638 /// ZNF638-IT1 / Fold change vs veh, ZNF638 /// ZNF638-IT1 / RFU, PANK3 / Fold change vs veh, PANK3 / RFU, SH3YL1 / Fold change vs veh, SH3YL1 / RFU, ZEB2 / Fold change vs veh, ZEB2 / RFU, NRIP1 / Fold change vs veh, NRIP1 / RFU, PTTG1IP / Fold change vs veh, PTTG1IP / RFU, CAPN2 / Fold change vs veh, CAPN2 / RFU, MED14 / Fold change vs veh, MED14 / RFU, SNORA58 / Fold change vs veh, SNORA58 / RFU, C1orf63 / Fold change vs veh, C1orf63 / RFU, LRRFIP1 / Fold change vs veh, LRRFIP1 / RFU, NDUFAF7 / Fold change vs veh, NDUFAF7 / RFU, SLC12A2 / Fold change vs veh, SLC12A2 / RFU, IBTK / Fold change vs veh, IBTK / RFU, ESF1 / Fold change vs veh, ESF1 / Fold change vs veh, TMEM50B / RFU, TAOK1 / Fold change vs veh, TAOK1 / RFU, ACBD3 / Fold change vs veh, ACBD3 / RFU, TMA16 / Fold change vs veh, TMA16 / RFU, RWDD3 / Fold change vs veh, RWDD3 / RFU, BCAT1 / Fold change vs veh, BCAT1 / RFU, EDEM3 / Fold change vs veh, EDEM3 / RFU, TMEM33 / Fold change vs veh, TMEM33 / RFU, WDR75 / Fold change vs veh, WDR75 / RFU, AHCTF1 / Fold change vs veh, AHCTF1 / RFU, TFRC / Fold change vs veh, TFRC / RFU, ZDHHC17 / Fold change vs veh, ZDHHC17 / RFU, NOM1 / Fold change vs veh, NOM1 / RFU, ARL8B / Fold change vs veh, ARL8B / RFU, ZBTB11 / Fold change vs veh, ZBTB11 / RFU, TAMM41 / Fold change vs veh, TAMM41 / RFU, KIAA1704 /// LOC100996395 / Fold change vs veh, KIAA1704 /// LOC100996395 / RFU, ING1 / Fold change vs veh, ING1 / RFU, TRMT61B / Fold change vs veh, TRMT61B / RFU, FUBP3 / Fold change vs veh, FUBP3 / RFU, TP53 / Fold change vs veh, TP53 / RFU, TNKS2 / Fold change vs veh, TNKS2 / RFU, ZFP14 / Fold change vs veh, ZFP14 / RFU, ACTR2 / Fold change vs veh, ACTR2 / RFU, PPP3R1 / Fold change vs veh, PPP3R1 / RFU, PIK3R1 / Fold change vs veh, PIK3R1 / RFU, HNRNPA1 / Fold change vs veh, HNRNPA1 / RFU, RNF170 / Fold change vs veh, RNF170 / RFU, ZNF28 / Fold change vs veh, ZNF28 / RFU, RNGTT / Fold change vs veh, RNGTT / RFU, OGT / Fold change vs veh, OGT / RFU, BRD1 / Fold change vs veh, BRD1 / RFU, MARS / Fold change vs veh, MARS / RFU, ZNF655 / Fold change vs veh, ZNF655 / RFU, FAHD1 / Fold change vs veh, FAHD1 / RFU, BDP1 / Fold change vs veh, BDP1 / RFU, LRRCC1 / Fold change vs veh, LRRCC1 / RFU, ARID1A / Fold change vs veh, ARID1A / RFU, ZNF146 / Fold change vs veh, ZNF146 / RFU, ZNF330 / Fold change vs veh, ZNF330 / RFU, GPN3 / Fold change vs veh, GPN3 / RFU, C9orf123 / Fold change vs veh, C9orf123 / RFU, N4BP2L2 / Fold change vs veh, N4BP2L2 / RFU, ARFIP1 / Fold change vs veh, ARFIP1 / RFU, FAM179B / Fold change vs veh, FAM179B / RFU, BCL10 / Fold change vs veh, BCL10 / RFU, UHRF1BP1L / Fold change vs veh, UHRF1BP1L / RFU, BET1 / Fold change vs veh, BET1 / RFU, CNOT2 / Fold change vs veh, CNOT2 / RFU, ZNF268 / Fold change vs veh, ZNF268 / Fold change vs veh, ZNF507 / RFU, DGCR2 / Fold change vs veh, DGCR2 / RFU, WDSUB1 / Fold change vs veh, WDSUB1 / Fold change vs veh, HSP90B1 /// MIR3652 / RFU, ADSS / Fold change vs veh, ADSS / RFU, GK / Fold change vs veh, GK / RFU, ZNF148 / Fold change vs veh, ZNF148 / RFU, TAF9 / Fold change vs veh, TAF9 / RFU, SLC1A5 / Fold change vs veh, SLC1A5 / RFU, SLMO2 / Fold change vs veh, SLMO2 / RFU, ABCC4 / Fold change vs veh, ABCC4 / RFU, LOC101060439 /// RAP1B / Fold change vs veh, LOC101060439 /// RAP1B / RFU, RFX7 / Fold change vs veh, RFX7 / RFU, GTPBP10 / Fold change vs veh, GTPBP10 / RFU, CNEP1R1 / Fold change vs veh, CNEP1R1 / RFU, BIVM-ERCC5 /// ERCC5 / Fold change vs veh, BIVM-ERCC5 /// ERCC5 / RFU, ILF3 / Fold change vs veh, ILF3 / RFU 11762660_at / Fold change /veh 11762660_at / RFU VCAN (11757783_s_at) / Fold change /veh VCAN (11757783_s_at) / RFU DDX43 (11728927_at) / Fold change /veh DDX43 (11728927_at) / RFU KRT8 (11758188_x_at) / Fold change /veh KRT8 (11758188_x_at) / RFU NKD1 (11759106_at) / Fold change /veh NKD1 (11759106_at) / RFU SRD5A1 (11742802_a_at) / Fold change /veh SRD5A1 (11742802_a_at) / RFU TPSAB1 /// TPSB2 (11721975_s_at) / Fold change /veh TPSAB1 /// TPSB2 (11721975_s_at) / RFU GSTM3 (11746129_a_at) / Fold change /veh GSTM3 (11746129_a_at) / RFU IL23R (11737362_x_at) / Fold change /veh IL23R (11737362_x_at) / RFU TMEM51 (11727254_a_at) / Fold change /veh TMEM51 (11727254_a_at) / RFU PIWIL2 (11732686_x_at) / Fold change /veh PIWIL2 (11732686_x_at) / RFU ORM1 (11744905_x_at) / Fold change /veh ORM1 (11744905_x_at) / RFU CCDC152 (11743942_at) / Fold change /veh CCDC152 (11743942_at) / RFU ECM1 (11717891_a_at) / Fold change /veh ECM1 (11717891_a_at) / RFU IL23R (11748794_a_at) / Fold change /veh IL23R (11748794_a_at) / RFU TNFAIP8L3 (11732012_x_at) / Fold change /veh TNFAIP8L3 (11732012_x_at) / RFU MBOAT4 (11741988_at) / Fold change /veh MBOAT4 (11741988_at) / RFU 11764193_at / Fold change /veh 11764193_at / RFU TMEM53 (11763286_at) / Fold change /veh TMEM53 (11763286_at) / RFU MAGEB2 (11727129_at) / Fold change /veh MAGEB2 (11727129_at) / RFU TMEM200A (11744735_a_at) / Fold change /veh TMEM200A (11744735_a_at) / RFU CCDC152 (11751479_a_at) / Fold change /veh CCDC152 (11751479_a_at) / RFU FAM211A (11726209_a_at) / Fold change /veh FAM211A (11726209_a_at) / RFU RGS16 (11746705_a_at) / Fold change /veh RGS16 (11746705_a_at) / RFU VCAN (11755009_s_at) / Fold change /veh VCAN (11755009_s_at) / RFU RHOB (11743442_s_at) / Fold change /veh RHOB (11743442_s_at) / RFU RGS16 (11720943_a_at) / Fold change /veh RGS16 (11720943_a_at) / RFU RGS16 (11720944_at) / Fold change /veh RGS16 (11720944_at) / RFU, VPS4B / Fold change vs veh, VPS4B / RFU, CREB1 / Fold change vs veh, CREB1 / RFU, DNAJC13 / Fold change vs veh, DNAJC13 / RFU, GNAQ / Fold change vs veh, GNAQ / RFU, CDK5R1 / Fold change vs veh, CDK5R1 / RFU, ZRANB3 / Fold change vs veh, ZRANB3 / RFU, CUL4A / Fold change vs veh, CUL4A / RFU, CCNY / Fold change vs veh, CCNY / RFU, UFL1 / Fold change vs veh, UFL1 / RFU, COG3 / Fold change vs veh, COG3 / RFU, DIAPH2 / Fold change vs veh, DIAPH2 / RFU, SKA2 / Fold change vs veh, SKA2 / RFU, AFF3 / Fold change vs veh, AFF3 / RFU, LMF1 / Fold change vs veh, LMF1 / RFU, IPO11 / Fold change vs veh, IPO11 / RFU, DFFB / Fold change vs veh, DFFB / RFU, FOXP1 / Fold change vs veh, FOXP1 / RFU, CARD8 / Fold change vs veh, CARD8 / RFU, STRN3 / Fold change vs veh, STRN3 / RFU, ADK / Fold change vs veh, ADK / RFU, RASSF2 / Fold change vs veh, RASSF2 / RFU, WIPF1 / Fold change vs veh, WIPF1 / RFU, LARP1B / Fold change vs veh, LARP1B / RFU, RASA1 / Fold change vs veh, RASA1 / RFU, RB1 / Fold change vs veh, RB1 / RFU, PPFIA1 / Fold change vs veh, PPFIA1 / RFU, MAT2A / Fold change vs veh, MAT2A / RFU, CCT5 / Fold change vs veh, CCT5 / RFU, WDR92 / Fold change vs veh, WDR92 / RFU, CUX1 / Fold change vs veh, CUX1 / RFU, TTC7A / Fold change vs veh, TTC7A / RFU, TMEM135 / Fold change vs veh, TMEM135 / RFU, DEPTOR / Fold change vs veh, DEPTOR / RFU, CPM / Fold change vs veh, CPM / RFU, DNAJB6 / Fold change vs veh, DNAJB6 / RFU, CACNA2D3 / Fold change vs veh, CACNA2D3 / RFU, DTX4 / Fold change vs veh, DTX4 / RFU, TFCP2 / Fold change vs veh, TFCP2 / RFU, GMCL1 /// GMCL1P1 / Fold change vs veh, GMCL1 /// GMCL1P1 / RFU, AEBP2 / Fold change vs veh, AEBP2 / RFU, SNHG1 /// SNORD22 /// SNORD25 /// SNORD26 /// SNORD27 /// SNORD28 /// SNORD29 /// SNORD31 / Fold change vs veh, SNHG1 /// SNORD22 /// SNORD25 /// SNORD26 /// SNORD27 /// SNORD28 /// SNORD29 /// SNORD31 / Fold change (Aza/veh), C12orf56 (ProbeSet 11735607_a_at) / Fold change (ACY-1035/veh), C12orf56 (ProbeSet 11735607_a_at) / Fold change (Aza/veh), FGFR1OP (ProbeSet 11751329_s_at) / Fold change (ACY-1035/veh), FGFR1OP (ProbeSet 11751329_s_at) / Fold change (Aza/veh), VPS36 (ProbeSet 11739960_a_at) / Fold change (ACY-1035/veh), VPS36 (ProbeSet 11739960_a_at) / RFU SYPL1 (11715823_x_at) / Fold change /veh SYPL1 (11715823_x_at) / RFU IGFBP7 (11715501_s_at) / Fold change /veh IGFBP7 (11715501_s_at) / RFU REEP3 (11722064_at) / Fold change /veh REEP3 (11722064_at) / RFU IGLL1 (11728026_x_at) / Fold change /veh IGLL1 (11728026_x_at): dose or concentration left out as unconfirmed
Details: MV-4-11 cells, 48 hours

Nc1ccc(-c2cccs2)cc1NC(=O)c1ccc2c(c1)cc(C1CC1)n2CCN1CCOCC1 [ACY-1035]
RFU TMPRSS4 (11748680_a_at): 52.95 RFU

From paper PMC5218480 (PLoS ONE, 2017)
